Assay results reported in the NIST ThermoML archive (doi:10.1016/j.fluid.2006.08.018).
± gives the expanded uncertainty stated by the source.

Tests used:
[1] = refractive index (Na D-line) (dimensionless); details: 101.33 kPa, Liquid, Standard Abbe refractometry
[2] = Liquid; for mass density: 101.33 kPa

SMILES | refractive index ([1]; 293.15 K) | mass density ([2]; 293.15 K) [kg/m3] | refractive index ([1]; 298.15 K) | mass density ([2]; 298.15 K) [kg/m3] | other results
ClC(Cl)=C(Cl)Cl [tetrachloroethene] | 1.5058 ± 0.0008 | 1622.8 ± 5.3 | – | – | vapor or sublimation pressure ([2]; 392.15 K): 95.5 ± 4 kPa
CC(C)CO [2-methyl-1-propanol] | – | – | 1.3939 ± 0.0008 | 797.8 ± 2.1 | vapor or sublimation pressure ([2]; 379.76 K): 95.5 ± 5 kPa
CN(C)C=O [dimethylformamide] | – | – | 1.4282 ± 0.0007 | 943.9 ± 2.5 | vapor or sublimation pressure ([2]; 421.15 K): 95.5 ± 4 kPa
CCO [ethanol] | – | – | 1.3591 ± 0.0008 | 784.9 ± 2.1 | vapor or sublimation pressure ([2]; 349.95 K): 95.5 ± 4 kPa
ClC(Cl)C(Cl)Cl [1,1,2,2-tetrachloroethane] | 1.494 ± 0.0008 | 1594.5 ± 5.1 | – | – | vapor or sublimation pressure ([2]; 417.25 K): 95.5 ± 4 kPa
CC(C)(C)O [2-methylpropan-2-ol] | – | – | 1.3852 ± 0.0008 | 781.2 ± 2.1 | vapor or sublimation pressure ([2]; 354.15 K): 95.5 ± 4 kPa
CCC(C)O (configuration not stated) [butan-2-ol] | – | – | 1.3953 ± 0.0008 | 802.4 ± 2.2 | vapor or sublimation pressure ([2]; 371.25 K): 95.5 ± 4 kPa
ClC=C(Cl)Cl [trichloroethene] | 1.4782 ± 0.0008 | 1464 ± 4.6 | – | – | vapor or sublimation pressure ([2]; 357.85 K): 95.5 ± 4 kPa
ClCCCl [1,2-dichloroethane] | 1.4448 ± 0.0008 | 1252.1 ± 3.8 | – | – | vapor or sublimation pressure ([2]; 355.15 K): 95.5 ± 4 kPa
